Experimental data from PMC3273674 (Biochimica et Biophysica Acta, 2011).
Where no end group is shown, it is not given here.

Tested on: dsDNA ([…])
Assay: DNA binding by fluorescence intercalator displacement
Settings: C50 normalized compared to BF2

Molecule | Relative C50
CC(C)C[C@H](NC(=O)CNC(=O)[C@H](C)NC(=O)[C@H](CCCNC(=N)N)NC(=O)[C@H](CO)NC(=O)[C@H](CO)NC(=O)[C@H](CCCNC(=N)N)NC(=O)[C@@H](N)[C@@H](C)O)C(=O)N[C@@H](CCC(N)=O)C(=O)N[C@@H](Cc1c[nH]c2ccccc12)C(=O)N1CCC[C@H]1C(=O)N[C@H](C(=O)NCC(=O)N[C@@H](CCCNC(=N)N)C(=O)N[C@H](C(=O)N[C@@H](Cc1c[nH]cn1)C(=O)N[C@@H](CCCNC(=N)N)C(=O)N[C@@H](CC(C)C)C(=O)N[C@@H](CC(C)C)C(=O)N[C@@H](CCCNC(=N)N)C(=O)N[C@@H](CCCCN)C(=O)O)C(C)C)C(C)C [BF2] | 1
KVLRDNIQGWTKPAIRRLARRG [DesHDAP3] | 1.09
